Measurements reported in patent US8338418B2, “Dual-acting antihypertensive agents” (Theravance, Inc., priority 2008, dated 2012).

Columns and labels:
human AT1 receptor = target: T1, human AT1 receptor (Homo sapiens, UniProt P30556); assay: AT1 radioligand binding assay; conditions: [Eu]AngII displacement, CHO-K1 membranes expressing human AT1; read-out: pKi at the AT1 receptor (converted)
T1 construct: expressed in transfected cells; membrane preparation
T1 sequence (P30556 1-359): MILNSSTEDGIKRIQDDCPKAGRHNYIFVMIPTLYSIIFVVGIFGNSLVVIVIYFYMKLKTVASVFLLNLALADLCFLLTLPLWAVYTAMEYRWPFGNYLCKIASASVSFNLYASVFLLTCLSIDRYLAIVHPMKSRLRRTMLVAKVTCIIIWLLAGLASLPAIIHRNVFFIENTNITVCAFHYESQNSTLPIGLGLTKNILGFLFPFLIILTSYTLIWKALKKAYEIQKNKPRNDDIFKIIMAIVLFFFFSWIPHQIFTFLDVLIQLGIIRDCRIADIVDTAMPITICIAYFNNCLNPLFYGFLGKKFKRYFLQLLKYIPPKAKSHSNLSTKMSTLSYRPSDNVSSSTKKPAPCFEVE
Procedure: These in vitro assays were used to assess the ability of test compounds to bind to the AT1 and the AT2 receptors.
Membrane Preparation from Cells Expressing Human AT1 or AT2 Receptors
Chinese hamster ovary (CHO-K1) derived cell lines stably expressing the cloned human AT1 or AT2 receptors, respectively, were grown in HAM's-F12 medium supplemented with 10% fetal bovine serum, 10 μg/ml penicillin/streptomycin, and 500 μg/ml geneticin in a 5% CO2 humidified incubator at 37° C. AT2 receptor expressing cells were grown in the additional presence of 100 nM PD123,319 (AT2 antagonist). When cultures reached 80-95% confluence, the cells were washed thoroughly in PBS and lifted with 5 mM EDTA. Cells were pelleted by centrifugation and snap frozen in MeOH-dry ice and stored at −80° C. until further use.
For membrane preparation, cell pellets were resuspended in lysis buffer (25 mM Tris/HCl pH 7.5 at 4° C., 1 mM EDTA, and one tablet of Complete Protease Inhibitor Cocktail Tablets with 2 mM EDTA per 50 mL buffer (Roche cat. #1697498, Roche Molecular Biochemicals, Indianapolis, Ind.)) and homogenized using a tight-fitting Dounce glass homogenizer (10 strokes) on ice. The homogenate was centrifuged at 1000×g, the supernatant was collected and centrifuged at 20,000×g. […] Protein concentration of the membrane suspension was determined by the method described in Bradford (1976) Anal Biochem. 72:248-54. […]

NEP enzyme = target: T2, NEP enzyme (Homo sapiens, UniProt P08473); assay: In vitro NEP enzyme inhibition assay; assay type: biochemical; conditions: fluorogenic peptide substrate; read-out: pIC50 for the NEP enzyme (converted)
T2 construct: purchased R&D Systems, Minneapolis, Minn; 1182-ZN
T2 sequence (P08473 52-750 limits assumed): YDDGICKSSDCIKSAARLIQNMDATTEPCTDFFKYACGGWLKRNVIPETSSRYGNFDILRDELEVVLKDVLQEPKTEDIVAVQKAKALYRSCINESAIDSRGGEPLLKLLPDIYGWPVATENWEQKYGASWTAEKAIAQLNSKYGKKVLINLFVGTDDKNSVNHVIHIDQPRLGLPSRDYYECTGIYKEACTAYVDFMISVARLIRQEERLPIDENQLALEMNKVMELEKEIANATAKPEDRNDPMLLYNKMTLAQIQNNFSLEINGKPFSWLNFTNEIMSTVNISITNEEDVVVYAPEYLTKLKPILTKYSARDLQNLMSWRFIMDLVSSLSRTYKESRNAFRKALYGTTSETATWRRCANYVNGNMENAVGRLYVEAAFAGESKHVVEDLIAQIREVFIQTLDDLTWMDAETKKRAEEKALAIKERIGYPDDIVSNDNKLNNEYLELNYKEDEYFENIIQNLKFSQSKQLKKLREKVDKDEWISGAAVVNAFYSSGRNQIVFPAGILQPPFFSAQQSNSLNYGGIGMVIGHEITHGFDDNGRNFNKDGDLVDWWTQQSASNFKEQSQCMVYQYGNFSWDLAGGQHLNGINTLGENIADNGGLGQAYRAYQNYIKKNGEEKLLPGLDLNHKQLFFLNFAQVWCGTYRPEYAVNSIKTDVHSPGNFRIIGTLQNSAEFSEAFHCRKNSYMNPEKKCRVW
Procedure: The inhibitory activities of compounds at human and rat NEP and human ACE were determined using in vitro assays as described below.
Rat NEP was prepared from the kidneys of adult Sprague Dawley rats. Whole kidneys were washed in cold PBS and brought up in ice-cold lysis buffer (1% Triton X-114, 150 mM NaCl, 50 mM Tris pH 7.5; Bordier (1981) J. Biol. Chem. 256:1604-1607) in a ratio of 5 mL of buffer for every gram of kidney. Samples were homogenized using a polytron hand held tissue grinder on ice. Homogenates were centrifuged at 1000×g in a swinging bucket rotor for 5 minutes at 3° C. The pellet was resuspended in 20 mL of ice cold lysis buffer and incubated on ice for 30 minutes. […] Protein concentrations were quantitated using a BCA detection system with BSA as a standard. […]
The assays were performed in 384-well white opaque plates at room temperature using the respective fluorogenic peptides at a concentration of 10 μM in Assay Buffer (50 mM Tris/HCl at 25° C., 100 mM NaCl, 0.01% Tween-20, 1 μM Zn, 0.025% BSA). […] The rat NEP enzyme preparation was used at a concentration that yielded quantitative proteolysis of 3 μM of Mca-RRL within 20 minutes at room temperature. […]
Plates were read on a fluorometer with excitation and emission wavelengths set to 320 nm and 405 nm, respectively. […]

Ki (human AT1 receptor): < 10 µM
IC50 (NEP enzyme): ≤ 0.1 µM
Compound: CCCCc1nc(C(=O)N[C@@H](CC(=O)NO)Cc2ccccc2)cn1Cc1ccc(C(=O)O)cc1 [Example 1, 4-[4-((R)-1-benzyl-2-hydroxycarbamoylethylcarbamoyl)-2-butyl-imidazol-1-ylmethyl]benzoic Acid]
